# Results reported in publication PMC11316643 (European journal of medicinal chemistry, 2024).
# Read-outs that look alike come from different tables or passages of the source.
# Tests used:
# [1] = biological target: human KOR (Homo sapiens, UniProt P41145); assay: Bias analysis by operational model
# [2] = biological target: human kappa opioid receptor (KOR) (Homo sapiens, UniProt P41145); assay: 35S-GTPγS binding assay of KOR G protein activation in CHO-hKOR membranes; type: biochemical
# Sequence of human kappa opioid receptor (KOR) (P41145 whole entry): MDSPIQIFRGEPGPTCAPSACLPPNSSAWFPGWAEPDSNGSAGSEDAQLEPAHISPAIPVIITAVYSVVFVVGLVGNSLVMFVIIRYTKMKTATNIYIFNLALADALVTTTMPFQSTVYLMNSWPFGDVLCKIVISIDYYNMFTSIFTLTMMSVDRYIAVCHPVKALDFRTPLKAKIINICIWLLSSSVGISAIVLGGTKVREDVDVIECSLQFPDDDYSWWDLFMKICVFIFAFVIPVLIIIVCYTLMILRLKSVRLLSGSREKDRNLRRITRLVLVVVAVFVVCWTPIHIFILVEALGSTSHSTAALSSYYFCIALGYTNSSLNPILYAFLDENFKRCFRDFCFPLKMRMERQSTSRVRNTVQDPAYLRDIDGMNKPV
# Sequence of human KOR (P41145 whole entry): as above
# Sequence of human KOR (P32121 whole entry partner): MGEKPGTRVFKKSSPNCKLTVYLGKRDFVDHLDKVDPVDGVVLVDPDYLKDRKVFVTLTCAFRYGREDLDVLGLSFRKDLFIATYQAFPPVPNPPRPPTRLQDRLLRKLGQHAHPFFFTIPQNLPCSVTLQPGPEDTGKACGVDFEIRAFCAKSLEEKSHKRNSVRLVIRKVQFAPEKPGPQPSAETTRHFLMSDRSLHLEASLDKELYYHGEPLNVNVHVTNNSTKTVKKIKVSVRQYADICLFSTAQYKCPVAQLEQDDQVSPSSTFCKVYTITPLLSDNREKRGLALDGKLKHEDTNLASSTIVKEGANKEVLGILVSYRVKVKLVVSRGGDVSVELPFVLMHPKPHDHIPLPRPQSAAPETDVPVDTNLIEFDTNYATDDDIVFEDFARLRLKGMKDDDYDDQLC
smiles,measurement,setting,value
"Cc1ccc(CCc2nnc(-c3ccccn3)n2Cc2cccs2)cc1C(F)(F)F [2d, 2-(5-(4-Methyl-3-(trifluoromethyl)phenethyl)-4-(thiophen-2-ylmethyl)-4H-1,2,4-triazol-3-yl)pyridine]","bias (bias factor, G protein over βarrestin2)",[1],38
"Cc1ccc(CCc2nnc(-c3ccccn3)n2-c2ccccc2)cc1C(F)(F)F [2g, 2-(5-(4-Methyl-3-(trifluoromethyl)phenethyl)-4-phenyl-4H-1,2,4-triazol-3-yl)pyridine]",KOR agonist activity (GTPγS) in words,[2],inactive
"Cc1ccc(CCc2nnc(-c3ccccn3)n2Cc2ccncc2)cc1C(F)(F)F [2j, 2-(5-(4-Methyl-3-(trifluoromethyl)phenethyl)-4-(pyridin-4-ylmethyl)-4H-1,2,4-triazol-3-yl)pyridine]",KOR agonist activity (GTPγS) in words,[2]; SAR discussion,inactive
"Cc1ccc(CCc2nnc(-c3ccccn3)n2CC2CC2)cc1C(F)(F)F [2k, 2-(4-(Cyclopropylmethyl)-5-(4-methyl-3-(trifluoromethyl)phenethyl)-4H-1,2,4-triazol-3-yl)pyridine]",fold decrease in potency on cyclopropane substitution,[2],10 fold
"Cc1ccc(CCc2nnc(-c3ccccc3)n2Cc2cccs2)cc1C(F)(F)F [3a, 3-(4-Methyl-3-(trifluoromethyl)phenethyl)-5-phenyl-4-(thiophen-2-ylmethyl)-4H-1,2,4-triazole]",KOR agonist activity (GTPγS) in words,[2],significant loss of activity
"Cc1ccc(CCc2nnc(-c3cccnc3)n2Cc2cccs2)cc1C(F)(F)F [3b, 3-(5-(4-Methyl-3-(trifluoromethyl)phenethyl)-4-(thiophen-2-ylmethyl)-4H-1,2,4-triazol-3-yl)pyridine]",KOR agonist activity (GTPγS) in words,[2],significant loss of activity
"Cc1ccc(CCc2nnc(-c3ccncc3)n2Cc2cccs2)cc1C(F)(F)F [3c, 4-(5-(4-Methyl-3-(trifluoromethyl)phenethyl)-4-(thiophen-2-ylmethyl)-4H-1,2,4-triazol-3-yl)pyridine]",KOR agonist activity (GTPγS) in words,[2]; SAR discussion,significant loss of activity
"Brc1ccccc1CCc1nnc(-c2ccccn2)n1Cc1cccs1 [4g, 2-(5-(2-Bromophenethyl)-4-(thiophen-2-ylmethyl)-4H-1,2,4-triazol-3-yl)pyridine]",fold decrease in potency of ortho bromo vs para-bromo (4e),[2],ca. 10 fold
"c1ccc(-c2nnc(C3CCc4ccccc4C3)n2Cc2cccs2)nc1 (centres unmarked) [5a, 2-(5-(1,2,3,4-Tetrahydronaphthalen-2-yl)-4-(thiophen-2-ylmethyl)-4H-1,2,4-triazol-3-yl)pyridine]",KOR agonist activity (GTPγS) in words,[2]; SAR discussion,detrimental to activity
"C(#Cc1nnc(-c2ccccn2)n1Cc1ccco1)c1ccccc1 [5b, 2-(4-(Furan-2-ylmethyl)-5-(phenylethynyl)-4H-1,2,4-triazol-3-yl)pyridine]",KOR agonist activity (GTPγS) in words,[2]; SAR discussion,dramatic loss in potency
"C(=C/c1nnc(-c2ccccn2)n1Cc1ccco1)/c1ccccc1 [5c, (Z)-2-(4-(Furan-2-ylmethyl)-5-styryl-4H-1,2,4-triazol-3-yl)pyridine]",KOR agonist activity (GTPγS) in words,[2],dramatic loss in potency
"Cc1ccc(/C=C/c2nnc(-c3ccccn3)n2Cc2ccco2)cc1C(F)(F)F [5d, (E)-2-(4-(Furan-2-ylmethyl)-5-(4-methyl-3-(trifluoromethyl)styryl)-4H-1,2,4-triazol-3-yl)pyridine]",KOR agonist activity (GTPγS) in words,[2],dramatic loss in potency
"FC(Cc1ccccc1)c1nnc(-c2ccccn2)n1Cc1ccco1 (centres unmarked) [5g, 2-(5-(1-Fluoro-2-phenylethyl)-4-(furan-2-ylmethyl)-4H-1,2,4-triazol-3-yl)pyridine]",fold loss of potency compared to compound 4a,[2],3 fold
"c1ccc(-c2nnc(-c3ccccn3)n2Cc2cccs2)cc1 [5j, 2-(5-Phenyl-4-(thiophen-2-ylmethyl)-4H-1,2,4-triazol-3-yl)pyridine]",KOR agonist activity (GTPγS) in words,[2],loss of activity
